Measured values reported in patent publication US9937235B2, “Lipidated peptides as anti-obesity agents” (USTAV ORGANICKE CHEMIE A BIOCHEMIE AKADEMIE VED CR, V.V.I, priority 2012, dated 2018).
Each block holds one molecule with its values, some of them ahead of it. Where a SMILES comes first, the peptide text is derived from it. Where no end group is shown, it is not given here. [ ]: non-standard residue; d: D form. The star is where a group is joined. Myristoyl = CCCCCCCCCCCCCC(=O)*; Decanoyl = CCCCCCCCCC(=O)*; Nle = CCCC[C@H](N)C(=O)O; Dap = NC[C@H](N)C(=O)O

Legend:
[1] = biological target: T1, human PrRP receptor, GPR10 (Homo sapiens, UniProt P49683); test: Competitive binding to CHO cells with transfected human GPR10; conditions: CHO cells with transfected human GPR10, human ^125I—PrRP31
T1 construct: host or cells: CHO cells
T1 sequence (P49683 1-370): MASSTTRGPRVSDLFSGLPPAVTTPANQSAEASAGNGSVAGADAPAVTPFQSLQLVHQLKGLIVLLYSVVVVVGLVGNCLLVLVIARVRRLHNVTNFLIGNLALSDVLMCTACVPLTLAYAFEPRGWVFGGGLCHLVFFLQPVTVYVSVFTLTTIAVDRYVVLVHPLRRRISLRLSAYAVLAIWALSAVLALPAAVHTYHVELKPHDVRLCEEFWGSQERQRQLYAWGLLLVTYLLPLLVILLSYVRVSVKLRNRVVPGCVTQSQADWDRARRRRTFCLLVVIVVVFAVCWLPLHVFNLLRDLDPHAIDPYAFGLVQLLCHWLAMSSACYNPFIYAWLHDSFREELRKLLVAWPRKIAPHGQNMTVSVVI
Experimental: Competitive binding experiments were performed according to Motulsky and Neubig (Motulsky, A., et al., “Analyzing radioligand binding data,” Curr Protoc Neurosci, Chapter 7, Unit 7.5, 2002).
CHO cells with transfected human PrRP receptor, GPR10 (Perkin Elmer, USA) were grown on 24-well plates coated with polyethyleneimine. The cells were grown to the optimal density of 40-80 thousand cells per well. The following agents were used for the experiment: binding buffer (25 mmol·l^−1 Tris, pH 7.4; 118 mmol·l^−1 NaCl, 10 mmol·l^−1 MgCl2, 1 mmol·l^−1 CaCl2, 5.5 mmol·l^−1 glucose, 0.5 mg/ml BSA), unlabelled analogs of PrRP of final concentration within 10^−11 to 10^−4 mol·l^−1, and human ^125I—PrRP31 of final concentration of 5×10^−11 mol·l^−1.
(§1) Plates were incubated for 60 minutes at room temperature. After incubation, the cells were solubilized in 0.1 mol/l solution of NaOH and the radioactivity bound to the cells was counted using a γ-counter. The experiments were performed in duplicate and repeated at least three times.
For evaluation of competitive binding experiments, the program Graph Pad Prism Software (San Diego, Calif., USA) was used. A method of nonlinear regression assuming one-site binding was used.

fasted C57BL/6 mice [2] = test: Food intake in fasted mice after SC administration; format: in vivo, mouse; conditions: for Food intake in mice (5 mg/kg SC) % saline-treated group (45 min): fasted C57BL/6 mice; for food intake / % control: SC administration, dose not stated for these substances; for % control: food intake vs saline
Summary of the method: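 Male C57BL/6 mice, food-deprived 17 h, received saline, PrRP or lipidated analogs either SC at 1-10 mg/kg or ICV into the third ventricle at 4 nmol/mouse.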

DIO C57BL/6 male mice = test: 14-day SC administration in diet-induced obese (DIO) mice; format: in vivo, mouse
Experimental: Inbred C57BL/6 male mice (AnLab, Prague, Czech Republic) were housed at a temperature of 23° C. under a daily cycle of 12 hours light and dark (light from 6:00 a.m.) with free access to water and food pellets (St-1, Mlýn Kocanda, Jesenice, Czech Republic).
At 8 weeks of age, mice were divided into a standard (St) diet-fed group (the energy content of the St-1 diet was 3.4 kcal/g, containing 25, 9, and 66% of calories from protein, fat, and carbohydrate, respectively (St-1, Mlýn Kocanda, Jesenice, Czech Republic)) and a high fat (HF) diet-fed group (the energy content of the HF diet was 5.3 kcal/g, containing 13, 60, and 27% of calories from protein, fat, and carbohydrate, respectively). […] Food intake and body weight were monitored weekly from 9 to 20 weeks of age. Mice resistant to the HF diet were withdrawn from the experiment (approximately 10% of mice).
At the age of 20 weeks, mice were placed into separate cages with free access to food and water. The following week, mice were subjected to a 14-day food intake experiment. They were injected with palm-PrRP31 or myr-PrRP20 dissolved in saline at doses of 5 mg/kg (n=10) or saline twice a day (at 8:00 and 18:00) for 14 days. Consumption of the St or HF diet and the weight of the mice were simultaneously followed.
After 14 days of treatment, mice were fasted overnight and sacrificed the following morning. Their blood sera were isolated, and the white adipose tissue (subcutaneous, abdominal, and gonadal), and the liver of all mice were dissected, weighed, and stored at −70° C. Fat to body weight ratio was calculated as a ratio of adipose tissue weight to body weight.
Serum insulin and leptin concentrations were measured by RIA assays. Serum glucose levels were measured using a Glucocard glucometer (Arkray, Kyoto, Japan). Serum triglyceride levels were measured by quantitative enzymatic reactions (Sigma, St. Louis, USA).
They were analyzed by a one-way ANOVA followed by a Dunnett post-hoc test (metabolic parameters, behavioral study) or two-way ANOVA followed by a Bonferroni post-hoc test (body weight evaluation) using Graph-Pad Software (San Diego, Calif., USA). P<0.05 was considered statistically significant.

[3] = test system: MAPK/ERK1/2 signaling pathway in RC-4B/C cells; test: MAPK/ERK1/2 signaling in RC-4B/C cells (Western blot); format: cell-based, rat; conditions: 10^−6 mol·l^−1, 5 minute incubation
[4] = biological target: T2, rat PrRP receptor (GPR10) in RC-4B/C cells (Rattus norvegicus, UniProt Q64121); test: Competitive binding to rat pituitary RC-4B/C cells; conditions: ^125I-rat PrRP31, RC-4B/C cells
T2 construct: host or cells: RC-4B/C rat pituitary cell line
T2 sequence (Q64121 1-370): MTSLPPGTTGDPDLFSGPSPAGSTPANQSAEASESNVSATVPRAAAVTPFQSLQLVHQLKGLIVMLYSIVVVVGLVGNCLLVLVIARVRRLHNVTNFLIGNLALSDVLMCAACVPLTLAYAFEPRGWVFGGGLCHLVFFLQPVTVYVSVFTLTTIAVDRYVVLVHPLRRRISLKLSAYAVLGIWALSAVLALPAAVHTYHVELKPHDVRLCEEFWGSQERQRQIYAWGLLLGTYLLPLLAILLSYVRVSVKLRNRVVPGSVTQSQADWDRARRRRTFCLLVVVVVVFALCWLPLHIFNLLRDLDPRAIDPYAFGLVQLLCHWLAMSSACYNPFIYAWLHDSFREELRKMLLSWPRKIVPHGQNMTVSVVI

fasted C57BL/6 mice [5] = test: Food intake in fasted mice after ICV administration; format: in vivo; conditions: 4 nmol/mouse; for % control: food intake vs saline
Experimental: Male C57BL/6 mice (An Lab, Prague 4) were bred in the accredited animal facility in the Institute of Organic Chemistry and Biochemistry, Czech Academy of Sciences, Prague, at the Institute of Molecular Genetics, Prague 4, at the temperature of 22±2° C. with access to food and water ad libitum. The day/night cycle was 12/12 hours (light turned on at 6:00 am). Animals were treated according to the Animal Protection Act (Act No. 246/1992). The males were fed standard chow diet St-1 (Mlýn Kocanda, Praha, Czech Republic) which contained 66% saccharides, 25% proteins and 9% lipids with a caloric value of 3.4 kcal/g.
The food was withdrawn 17 hours prior to injection of lipidated peptide and free access to water was maintained. The administration of saline, PrRP or lipidated analogs was performed either by SC injection at doses of 1-10 mg/kg (volume 0.2 ml/mouse), or by ICV using infusion pump (cannulae were inserted into the third brain ventricle 4 days before the experiment following the procedure of Maixnerová et al. (Maixnerová et al., 2011)). The single dose of peptide was 4 nmol/mouse (5 μl/mouse).
Fifteen minutes after the lipidated peptide administration, the mice were given pre-weighed food. The food was then weighed every 30 minutes for 5-10 hours. The administration of every dose was performed at least twice and one group of mice consisted of at least 6 mice. The results were presented as % of food intake as compared with the control group injected with saline.
Statistical evaluation was performed using program Graph-Pad Prism Software (San Diego, Calif., USA), and the one-way ANOVA with a subsequent Dunnettovým post-hoc test. The difference in food intake between mice injected with saline and mice injected with the examined peptide were considered statistically significant at P<0.05.

[6] = biological target: T3, rat PrRP receptor in RC-4B/C cells (rat, UniProt Q64121 1-370); test: competition with 125I-rat PrRP31 on RC-4B/C cells; Ki by Cheng-Prusoff
T3 construct: whole, on cells; also called the rat receptor; GPR10
T3 sequence (looked up): T2 sequence (Q64121 1-370)
Experimental: The rat pituitary cell line RC-4B/C (ATCC, Manassas, USA) was grown on 24-well plates which had their bottom coated with polyethyleneimine. The cells were grown to the optimal density of 300-450 thousand per well.
as §1

[7] = 5 mg/kg SC twice a day, 14 days, 17 h fasted DIO male mice
[8] = serum, 5 mg/kg SC twice a day, 14 days, 17 h fasted DIO male mice

Ki [1]: 1.92 ± 0.43 nM
Molecule: CCCC[C@H](NC(=O)[C@H](CO)NC(=O)[C@H](Cc1c[nH]cn1)NC(=O)[C@H](CCC(N)=O)NC(=O)[C@H](Cc1c[nH]cn1)NC(=O)[C@H](C)NC(=O)[C@H](CCCNC(=N)N)NC(=O)[C@@H](N)CO)C(=O)N[C@@H](CCC(=O)O)C(=O)N[C@H](C(=O)N[C@@H](CCCNC(=N)N)C(=O)N[C@H](C(=O)N1CCC[C@H]1C(=O)N[C@@H](CC(=O)O)C(=O)N[C@H](C(=O)N[C@@H](CC(N)=O)C(=O)N1CCC[C@H]1C(=O)N[C@@H](C)C(=O)N[C@@H](Cc1c[nH]c2ccccc12)C(=O)N[C@@H](Cc1ccc(O)cc1)C(=O)N[C@H](C(=O)NCC(=O)N[C@@H](CCCNC(=N)N)C(=O)NCC(=O)N[C@H](C(=O)N[C@@H](CCCNC(=N)N)C(=O)N1CCC[C@H]1C(=O)N[C@H](C(=O)NCC(=O)N[C@@H](CCCNC(=N)N)C(=O)N[C@@H](Cc1ccccc1)C(N)=O)C(C)C)[C@@H](C)CC)[C@@H](C)O)[C@@H](C)CC)[C@@H](C)O)[C@@H](C)O [Analog 14] (H-SRAHQHS[Nle]ETRTPDINPAWYTGRGIRPVGRF-NH2)
Food intake in mice (5 mg/kg SC) % saline-treated group (45 min) (fasted C57BL/6 mice [2]): 100%

Ki [1]: 2.41 ± 0.26 nM
Molecule: CCCCCCCCCC(=O)N[C@H](C(=O)N1CCC[C@H]1C(=O)N[C@@H](CC(=O)O)C(=O)N[C@H](C(=O)N[C@@H](CC(N)=O)C(=O)N1CCC[C@H]1C(=O)N[C@@H](C)C(=O)N[C@@H](Cc1c[nH]c2ccccc12)C(=O)N[C@@H](Cc1ccc(O)cc1)C(=O)N[C@@H](C)C(=O)N[C@@H](CO)C(=O)N[C@@H](CCCNC(=N)N)C(=O)NCC(=O)N[C@H](C(=O)N[C@@H](CCCNC(=N)N)C(=O)N1CCC[C@H]1C(=O)N[C@H](C(=O)NCC(=O)N[C@@H](CCCNC(=N)N)C(=O)N[C@@H](Cc1ccccc1)C(N)=O)C(C)C)[C@@H](C)CC)[C@@H](C)CC)[C@@H](C)O [Analog 53] (Decanoyl-TPDINPAWYASRGIRPVGRF-NH2)
Food intake in mice (5 mg/kg SC) % saline-treated group (45 min) (fasted C57BL/6 mice [2]): 100%

Molecule: Myr-PrRP20: myristoylated PrRP20 given to DIO mice; analog number (rat 10 or human 13/55) not stated (Myristoyl-TPDINPAWYASRGIRPVGRF-NH2; ends and bridges not checked; UniProt P81277 34-53, looked up)
Fat/body weight [%] (DIO C57BL/6 male mice; [7]): 15.30 ± 0.42%
Liver/body weight [%] (DIO C57BL/6 male mice; [7]): 3.60 ± 0.18 %
Body weight of DIO mice (DIO C57BL/6 male mice; 5 mg/kg SC twice per day for 14 days, FIG. 9): significantly decreased
Glucose (DIO C57BL/6 male mice; [8]): 7.52 ± 0.16 mmol/L
Insulin (DIO C57BL/6 male mice; [8]): 3.54 ± 0.47 ng/mL
Leptin (DIO C57BL/6 male mice; [8]): 39.56 ± 3.47 ng/mL
Triglycerides (DIO C57BL/6 male mice; [8]): 68.71 ± 4.16 mg/dL

% of PrRP31 binding [4]: 143%
Molecule: TPDINPAWYTGRGIRPVGRF-NH2 [PrRP20, reference compound]
ERK signaling [3]: agonist
food intake (fasted C57BL/6 mice [2]; 45 minutes): 0.32 g
% control (fasted C57BL/6 mice [2]; 45 minutes): 100%
food intake (fasted C57BL/6 mice [2]; 300 minutes): 1.1 g
% control (fasted C57BL/6 mice [2]; 300 minutes): 100%
food intake (fasted C57BL/6 mice [5]; 45 minutes): 0.32 g
% control (fasted C57BL/6 mice [5]; 45 minutes): 68%
food intake (fasted C57BL/6 mice [5]; 300 minutes): 1.29 g
% control (fasted C57BL/6 mice [5]; 300 minutes): 100%

Ki [6]: 4.13 nM
B1: analog no. 12 (peptide)
peptide: [Dap](Myristoyl)RTHRHS[Nle]EIRTPDINPAWYASRGIRPVGRF-NH2
modifications: N-terminus assumed
SMILES: CCCCCCCCCCCCCC(=O)NC[C@H](N)C(=O)N[C@@H](CCCNC(=N)N)C(=O)N[C@H](C(=O)N[C@@H](Cc1c[nH]cn1)C(=O)N[C@@H](CCCNC(=N)N)C(=O)N[C@@H](Cc1c[nH]cn1)C(=O)N[C@@H](CO)C(=O)N[C@@H](CCCC)C(=O)N[C@@H](CCC(=O)O)C(=O)N[C@H](C(=O)N[C@@H](CCCNC(=N)N)C(=O)N[C@H](C(=O)N1CCC[C@H]1C(=O)N[C@@H](CC(=O)O)C(=O)N[C@H](C(=O)N[C@@H](CC(N)=O)C(=O)N1CCC[C@H]1C(=O)N[C@@H](C)C(=O)N[C@@H](Cc1c[nH]c2ccccc12)C(=O)N[C@@H](Cc1ccc(O)cc1)C(=O)N[C@@H](C)C(=O)N[C@@H](CO)C(=O)N[C@@H](CCCNC(=N)N)C(=O)NCC(=O)N[C@H](C(=O)N[C@@H](CCCNC(=N)N)C(=O)N1CCC[C@H]1C(=O)N[C@H](C(=O)NCC(=O)N[C@@H](CCCNC(=N)N)C(=O)N[C@@H](Cc1ccccc1)C(N)=O)C(C)C)[C@@H](C)CC)[C@@H](C)CC)[C@@H](C)O)[C@@H](C)CC)[C@@H](C)O
notes: analog of human PrRP31
